Measured values taken from paper PMC9709406 (Frontiers in Pharmacology, 2022).
Where two headings read alike, the source gives them in different places.

Experiments:
KYSE70 cells = assay: MTT assay, KYSE70; type: cell-based, human
In short: (§1)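 Cells in RPMI-1640 with 10% FBS (taxol-resistant lines kept in 100 nm/L paclitaxel) were seeded at 2,200–2,500 cells/well and dosed next day with compound at 0–50 μM, 0.1% DMSO as control. After 48 h, MTT was added for 1–4 h and absorbance read at 490 nm.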

KYSE70TR cells = assay: MTT assay, taxol-resistant KYSE70TR; type: cell-based, human; settings: for blank-corrected absorbance 490 nm relative to control (fraction) / inhibition (1 minus fraction of control): 70TR
From the text: (§2) The human cancer cells (H1650, H1975, KYSE70, KYSE410 and KYSE450) were purchased from the Type Culture Collection of the Chinese Academy of Sciences (Shanghai, China). The human immortalized normal esophageal epithelial cell line SHEE was donated by Dr. Enmin Li from the Laboratory of Tumor Pathology (Shantou University Medical College, Shantou, Guangdong, China). Drug-resistant cells (H1650TR, H1975OR, KYSE70TR, KYSE410TR and KYSE450TR) were induced by China-US (Henan) Hormel Cancer Institute. The cellswere cultured in RPMI-1640 complete growth medium containing 100 U/mL penicillin-streptomycin and 10% FBS. Based on the above medium formula, 100 nm/L paclitaxel was added in taxol-resistant cells, 100 nm/L gefitinib was added in gefitinib-resistant cells. The cells were incubated at 37 °C in an atmosphere containing 5% of CO2. The compounds were dissolved in DMSO to make a 50 mM stock solution and were diluted to the concentration of working solutions with complete growth medium before administration.
(§3) Cells were seeded in 96-well plates with 2,200–2,500 cells/well in100 μL. One day after seeding, test compounds with the concentration between 0 and 50 μM were added with 0.1% DMSO as control. Five multiple wells for each concentration. […] The absorbance at 490 nm was measured using a microplate reader (Thermo).

KYSE450TR cells [1] = assay: Cell cycle analysis by flow cytometry, KYSE450TR; type: cell-based, human; settings: 24 h, icotinib at 8 μM, 3l at 8 μM
Experimental: KYSE450/KYSE450TR cells were plated in 6-well plates with a density of 1×10^5 cells/well and cultured overnight. […] Trypsinization treatment and the cells were collected by centrifugation. The cell pellet was re-suspended in 70% ethanol at −20°C for at least 3 h. The cells were washed with PBS and were re-suspended in 250 μL of 0.6% tricine with Renease A for 1 h, then stained in PI (final concentration 1.8 μg/ml, Biolegend cat: 640945) for 15 min in dark. Cells were retransferred to the BD FACSCalibur™ Flow Cytometer. All analyses were performed with FlowJo software v105.3.6.

H1650TR cells = assay: MTT assay, taxol-resistant H1650TR; type: cell-based; settings: Homo sapiens, NCI-H1650, 48 h, value in parentheses in H1650 column
From the text: as §2
Cells were seeded in 96-well plates with 2,200–2,500 cells/well in100 μL. One day after seeding, test compounds with the concentration between 0 and 50 μM were added with 0.1% DMSO as control. Five multiple wells for each concentration. After 48 h, MTT was added and incubated in the plate for 1–4 h in the incubator. The absorbance at 490 nm was measured using a microplate reader (Thermo).

H1975OR cells = assay: MTT assay, osimertinib-resistant H1975OR; type: cell-based; settings: Homo sapiens, NCI-H1975, 48 h, osimertinib-resistant H1975OR, value in parentheses in H1975 column, read-out: IC50 48 h H1975OR (data in parentheses) (converted)
From the text: as §2, §3

KYSE450TR cells [2] = assay: MTT assay, taxol-resistant KYSE450TR; type: cell-based, human; settings: for blank-corrected absorbance 490 nm relative to control (fraction) / inhibition (1 minus fraction of control): 450TR; for IC50: Homo sapiens, MTT
From the text: as §2, §3

SHEE cells = assay: MTT assay, normal esophageal epithelial cell line SHEE; type: cell-based; settings: Homo sapiens, 48 h, n = 5
In short: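 MTT, 48 h compound exposure, 0–50 μM, 0.1% DMSO ctrl, 5 replicate wells/conc. 2,200–2,500 cells/well; A490 read. Resistant lines maintained with 100 nm/L paclitaxel.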

[3] = test system: EGFR-TK pathway in KYSE450 cells; assay: Western blot of EGFR-TK pathway proteins, KYSE450; type: cell-based, human; settings: KYSE450, 3 μM
Experimental: (§4) Cells treated with 1% DMSO were used as control. Then the cells were harvested and total proteins were extracted. Total proteins were separated by 12% SDS polyacrylamide gel electrophoresis and transferred onto PVDF membranes. The membrane was blocked for 1 h, then incubated overnight with a 1 : 1000 dilution of anti-EGFR, anti-p-EGFR (Tyr1068/Tyr1086), anti-Erk1/2, and anti-p-Erk1/2 (Thr202/Tyr204), or 1 : 3000 dilution of anti-GAPDH primary antibody at 4°C. 1 : 3000 anti-rabbit secondary antibodies incubated for 2 h at room temperature. Protein bands were developed by chemiluminescence.

EGFR = molecular target: T1, EGFR (Homo sapiens, UniProt P00533); assay: EGFR kinase assay (ELISA); type: biochemical; settings: 25°C
T1 construct: purchased Active MOTIF
T1 sequence (P00533 25-1210): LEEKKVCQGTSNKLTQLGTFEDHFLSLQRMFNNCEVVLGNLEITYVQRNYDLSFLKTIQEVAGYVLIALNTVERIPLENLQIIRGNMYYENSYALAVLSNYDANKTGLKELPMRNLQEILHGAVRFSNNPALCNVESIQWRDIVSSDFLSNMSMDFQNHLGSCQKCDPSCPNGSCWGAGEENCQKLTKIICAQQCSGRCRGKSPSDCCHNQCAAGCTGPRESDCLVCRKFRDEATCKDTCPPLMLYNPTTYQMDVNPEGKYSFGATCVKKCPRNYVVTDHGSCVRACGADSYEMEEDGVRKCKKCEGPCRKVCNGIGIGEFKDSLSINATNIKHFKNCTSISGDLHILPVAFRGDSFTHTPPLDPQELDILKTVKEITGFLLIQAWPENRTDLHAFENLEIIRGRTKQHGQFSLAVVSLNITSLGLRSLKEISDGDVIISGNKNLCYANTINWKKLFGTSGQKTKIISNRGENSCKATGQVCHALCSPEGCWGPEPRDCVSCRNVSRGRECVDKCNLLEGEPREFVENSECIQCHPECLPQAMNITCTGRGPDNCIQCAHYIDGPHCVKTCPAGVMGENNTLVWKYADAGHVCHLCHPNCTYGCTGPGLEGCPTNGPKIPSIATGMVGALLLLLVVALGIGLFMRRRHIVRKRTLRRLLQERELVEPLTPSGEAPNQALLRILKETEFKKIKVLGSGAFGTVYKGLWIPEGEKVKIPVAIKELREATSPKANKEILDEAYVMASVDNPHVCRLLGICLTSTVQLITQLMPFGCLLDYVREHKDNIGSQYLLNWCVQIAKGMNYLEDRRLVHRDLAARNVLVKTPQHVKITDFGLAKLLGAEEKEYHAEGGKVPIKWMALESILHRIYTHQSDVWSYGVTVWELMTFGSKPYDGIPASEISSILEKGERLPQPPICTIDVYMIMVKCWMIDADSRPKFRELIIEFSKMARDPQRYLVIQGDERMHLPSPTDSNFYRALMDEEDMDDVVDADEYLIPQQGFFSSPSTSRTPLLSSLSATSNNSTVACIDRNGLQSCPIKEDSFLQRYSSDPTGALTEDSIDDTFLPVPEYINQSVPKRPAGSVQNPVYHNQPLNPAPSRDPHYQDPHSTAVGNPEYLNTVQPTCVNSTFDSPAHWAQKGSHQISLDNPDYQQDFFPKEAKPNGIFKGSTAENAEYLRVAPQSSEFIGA
Experimental: Kinase inhibitory activities of the compounds were evaluated using the Protein Tyrosine Kinase Assay Kit (SignalChem (British Columbia, Canada)). The kinase enzyme of EGFR was purchased from Active MOTIF. The ELISA experiments were carried out according the instructions of the kit. Active kinases were incubated with indicated compounds in 1 × reaction buffer containing 20 μM substrate at 25°C for 1 h and 2 h, respectively. The absorbance was read with a multimode plate reader (PerkinElmer, United States) at 450 nm.

[4] = test system: EGFR-TK pathway in KYSE450TR cells; assay: Western blot of EGFR-TK pathway proteins, KYSE450TR; type: cell-based, human; settings: 3 μM, vs control
Experimental: as §4

KYSE450 cells = assay: MTT assay, KYSE450; type: cell-based, human; settings: for IC50: Homo sapiens, KYSE-450
In short: as §1

H1650 cells = assay: MTT assay for cell proliferation and cytotoxicity, H1650; type: cell-based; settings: Homo sapiens, NCI-H1650, 48 h, H1650, n = 5
In short: as §1

FC(F)(F)c1ccc(-n2cc(-c3cccc(Nc4ncnc5cc6c(cc45)OCCOCCOCCO6)c3)nn2)cc1 [compound 3l]
IC50 (KYSE70 cells; Homo sapiens, KYSE-70, MTT, 48 h, KYSE70, n = 5): 4.25 ± 0.21 µM | blank-corrected absorbance 490 nm relative to control (fraction) (KYSE70 cells; KYSE70, concentration 2.25): 0.9298 | inhibition (1 minus fraction of control) (KYSE70 cells; KYSE70, concentration 2.25): 0.07024 | blank-corrected absorbance 490 nm relative to control (fraction) (KYSE70 cells; KYSE70, concentration 4.5): 0.4365 | inhibition (1 minus fraction of control) (KYSE70 cells; KYSE70, concentration 4.5): 0.5635 | blank-corrected absorbance 490 nm relative to control (fraction) (KYSE70 cells; KYSE70, concentration 9): 0.2659 | inhibition (1 minus fraction of control) (KYSE70 cells; KYSE70, concentration 9): 0.7341 | blank-corrected absorbance 490 nm relative to control (fraction) (KYSE70TR cells; concentration 3): 0.722 | inhibition (1 minus fraction of control) (KYSE70TR cells; concentration 3): 0.278 | blank-corrected absorbance 490 nm relative to control (fraction) (KYSE70TR cells; concentration 6): 0.41 | inhibition (1 minus fraction of control) (KYSE70TR cells; concentration 6): 0.59 | blank-corrected absorbance 490 nm relative to control (fraction) (KYSE70TR cells; concentration 12): 0.2379 | inhibition (1 minus fraction of control) (KYSE70TR cells; concentration 12): 0.7621 | IC50 (KYSE70TR cells; Homo sapiens, MTT, 48 h, taxol-resistant KYSE70TR, value in parentheses, read-out: IC50 48 h KYSE70TR (data in parentheses) (converted)): 5.13 µM | cell cycle phase in which cells were arrested (KYSE450TR cells [1]): G2/M phase | IC50 (H1650TR cells): 8.43 µM | IC50 (H1975OR cells): 9.73 µM | blank-corrected absorbance 490 nm relative to control (fraction) (KYSE450TR cells [2]; concentration 4): 0.04737 | inhibition (1 minus fraction of control) (KYSE450TR cells [2]; concentration 4): 0.9526 | blank-corrected absorbance 490 nm relative to control (fraction) (KYSE450TR cells [2]; concentration 8): 0.04791 | inhibition (1 minus fraction of control) (KYSE450TR cells [2]; concentration 8): 0.9521 | blank-corrected absorbance 490 nm relative to control (fraction) (KYSE450TR cells [2]; concentration 16): 0.1075 | inhibition (1 minus fraction of control) (KYSE450TR cells [2]; concentration 16): 0.8925 | IC50 (KYSE450TR cells [2]; 450t (KYSE450TR), 490 nm, read-out: IC50): 2.1 µM | IC50 (KYSE450TR cells [2]; 48 h, taxol-resistant KYSE450TR, value in parentheses, read-out: IC50 48 h KYSE450TR (data in parentheses) (converted)): 8.59 µM | IC50 (SHEE cells): 4.82 ± 0.23 µM | EGFR (Tyr1068) protein levels, 3l group compared with icotinib group [3]: no obvious difference | ERK1/2 protein levels ([3]; vs control): lower than the control at 0.5, 1, 2, 3, and 6 h | P-EGFR (Tyr1068) protein levels ([3]; vs control): lower than the control at 1 h | P-EGFR (Tyr1086) protein levels ([3]; vs control): lower than the control at 0.5, 1, 2, 3, and 6 h | P-ERK1/2 (Thr202/Tyr204) protein levels ([3]; vs control): lower than the control at 0.5, 1, 2, 3, and 6 h | IC50 (EGFR; incubation 1 h, read-out: IC50 EGFR 1 h): 0.42 µM | IC50 (EGFR; incubation 2 h, read-out: IC50 EGFR 2 h): 1.67 µM | P-EGFR (Tyr1068) protein levels [4]: lower than the control at 1 and 2 h | P-ERK1/2 (Thr202/Tyr204) protein levels [4]: lower than the control at 6 h | IC50 (KYSE450 cells; KYSE450, MTT, 490 nm, read-out: IC50): 4 µM | IC50 (KYSE450 cells; MTT, 48 h, KYSE450, n = 5, read-out: IC50 48 h KYSE450): 3.4 ± 0.16 µM | blank-corrected absorbance 490 nm relative to control (fraction) (KYSE450 cells; KYSE450, concentration 2): 0.4268 | inhibition (1 minus fraction of control) (KYSE450 cells; KYSE450, concentration 2): 0.5732 | blank-corrected absorbance 490 nm relative to control (fraction) (KYSE450 cells; KYSE450, concentration 4): 0.4691 | inhibition (1 minus fraction of control) (KYSE450 cells; KYSE450, concentration 4): 0.5309 | blank-corrected absorbance 490 nm relative to control (fraction) (KYSE450 cells; KYSE450, concentration 8): 0.05646 | inhibition (1 minus fraction of control) (KYSE450 cells; KYSE450, concentration 8): 0.9435 | IC50 (H1650 cells): 4.4 ± 0.32 µM
